Test results published in ChEMBL document CHEMBL1144566, “Synthesis, anti-tuberculosis activity, and 3D-QSAR study of 4-(adamantan-1-yl)-2-substituted quinolines” (Bioorg Med Chem, 2007).

Key:
[1] = tested on: Mycobacterium tuberculosis; experiment: Antimycobacterial activity against drug-sensitive Mycobacterium tuberculosis H37Rv by microplate alamar blue assay; assay type: functional, organism-based
[2] = tested on: Mycobacterium tuberculosis; experiment: Antimycobacterial activity against drug-sensitive Mycobacterium tuberculosis H37Rv at 6.250 ug/mL relative to isoniazid by microplate alamar blue assay; assay type: functional
[3] = tested on: Mycobacterium tuberculosis; experiment: Antimycobacterial activity against drug-sensitive Mycobacterium tuberculosis H37Rv at 3.125 ug/mL relative to isoniazid by microplate alamar blue assay; assay type: functional
[4] = tested on: Mycobacterium tuberculosis; experiment: Antimycobacterial activity against drug-sensitive Mycobacterium tuberculosis H37Rv at 1000 ug/mL relative to isoniazid by microplate alamar blue assay; assay type: functional

| SMILES | IC50 [1] | inhibition at 6.25 µg/mL [2] | inhibition at 3.125 µg/mL [3] | inhibition at 1000 µg/mL [4] |
| --- | --- | --- | --- | --- |
| O=C(N/N=C/c1ccnc2cc(Cl)ccc12)c1cc(C23CC4CC(CC(C4)C2)C3)c2ccccc2n1 | 0.661 µM | 95% |  |  |
| O=C(NNC1CCCC1)c1cc(C23CC4CC(CC(C4)C2)C3)c2ccccc2n1 | 0.0813 µM |  | 99% |  |
| CN(C)c1ccc(/C=N/NC(=O)c2cc(C34CC5CC(CC(C5)C3)C4)c3ccccc3n2)c2ccccc12 | 3.31 µM | 79% |  |  |
| CC(C)NNC(=O)c1cc(C23CC4CC(CC(C4)C2)C3)c2ccccc2n1 | 16.6 µM | 51% |  |  |
| NNC(=O)c1cc(C23CC4CC(CC(C4)C2)C3)c2ccccc2n1 | 0.195 µM | 99% |  |  |
| O=C(NN(CCCc1ccccc1)CCCc1ccccc1)c1cc(C23CC4CC(CC(C4)C2)C3)c2ccccc2n1 | 13.8 µM | 45% |  |  |
| O=C(N/N=C/c1cccnc1)c1cc(C23CC4CC(CC(C4)C2)C3)c2ccccc2n1 | 13.5 µM | 53% |  |  |
| CCCCCCN(CCCCCC)NC(=O)c1cc(C23CC4CC(CC(C4)C2)C3)c2ccccc2n1 | 7.24 µM | 65% |  |  |
| CCCNNC(=O)c1cc(C23CC4CC(CC(C4)C2)C3)c2ccccc2n1 | 3.8 µM | 82% |  |  |
| CC(=O)NNC(=O)c1cc(C23CC4CC(CC(C4)C2)C3)c2ccccc2n1 | 0.0871 µM |  | 99% |  |
| O=C(N/N=C/c1cccs1)c1cc(C23CC4CC(CC(C4)C2)C3)c2ccccc2n1 | 0.0759 µM |  | 99% |  |
| O=C(N/N=C/c1ccc[nH]1)c1cc(C23CC4CC(CC(C4)C2)C3)c2ccccc2n1 | 0.0794 µM |  | 99% |  |
| O=CNNC(=O)c1cc(C23CC4CC(CC(C4)C2)C3)c2ccccc2n1 | 75.9 µM | 19% |  |  |
| O=C(NN(CCc1ccccc1)CCc1ccccc1)c1cc(C23CC4CC(CC(C4)C2)C3)c2ccccc2n1 | 9.55 µM | 55% |  |  |
| O=C(N/N=C/c1c2ccccc2cc2ccccc12)c1cc(C23CC4CC(CC(C4)C2)C3)c2ccccc2n1 | 6.31 µM | 66% |  |  |
| COc1ccc(/C=N/NC(=O)c2cc(C34CC5CC(CC(C5)C3)C4)c3ccccc3n2)cc1 | 56.2 µM | 20% |  |  |
| O=C(NN(C(=O)c1ccccc1)C(=O)c1ccccc1)c1cc(C23CC4CC(CC(C4)C2)C3)c2ccccc2n1 | 11.2 µM | 51% |  |  |
| CC(C)(C)/C=N/NC(=O)c1cc(C23CC4CC(CC(C4)C2)C3)c2ccccc2n1 | 145 µM | 10% |  |  |
| O=C(NNc1ccc(F)cc1)c1cc(C23CC4CC(CC(C4)C2)C3)c2ccccc2n1 | 1.12 µM | 93% |  |  |
| O=C(N/N=C/c1cccc(O)c1)c1cc(C23CC4CC(CC(C4)C2)C3)c2ccccc2n1 | 0.148 µM | 99% |  |  |
| CC(C)/C=N/NC(=O)c1cc(C23CC4CC(CC(C4)C2)C3)c2ccccc2n1 | 9.77 µM | 63% |  |  |
| O=C(N/N=C/c1c(F)c(F)c(F)c(F)c1F)c1cc(C23CC4CC(CC(C4)C2)C3)c2ccccc2n1 | 66.1 µM | 16% |  |  |

| SMILES | IC50 [1] | inhibition at 6.25 µg/mL [2] | inhibition at 3.125 µg/mL [3] | inhibition at 1000 µg/mL [4] |
| --- | --- | --- | --- | --- |
| O=C(N/N=C/c1ccc(C(F)(F)F)cc1C(F)(F)F)c1cc(C23CC4CC(CC(C4)C2)C3)c2ccccc2n1 | 6.46 µM | 64% |  |  |
| O=C(N/N=C/c1ccncc1)c1cc(C23CC4CC(CC(C4)C2)C3)c2ccccc2n1 | 6.46 µM | 70% |  |  |
| O=C(NNCCc1ccccc1)c1cc(C23CC4CC(CC(C4)C2)C3)c2ccccc2n1 | 7.94 µM | 65% |  |  |
| O=C(N/N=C/c1ccnc2ccccc12)c1cc(C23CC4CC(CC(C4)C2)C3)c2ccccc2n1 | 0.0692 µM |  | 99% |  |
| COc1ccc2ccccc2c1/C=N/NC(=O)c1cc(C23CC4CC(CC(C4)C2)C3)c2ccccc2n1 | 5.75 µM | 69% |  |  |
| COc1ccc(/C=N/NC(=O)c2cc(C34CC5CC(CC(C5)C3)C4)c3ccccc3n2)c2ccccc12 | 9.55 µM | 57% |  |  |
| O=C(N/N=C/c1ccco1)c1cc(C23CC4CC(CC(C4)C2)C3)c2ccccc2n1 | 0.0794 µM |  | 99% |  |
| O=C(NNc1cccc(F)c1)c1cc(C23CC4CC(CC(C4)C2)C3)c2ccccc2n1 | 0.0759 µM |  | 99% |  |
| O=C(N/N=C/c1ccccc1Cl)c1cc(C23CC4CC(CC(C4)C2)C3)c2ccccc2n1 | 0.0229 µM |  |  | 99% |
| CCC(C)NNC(=O)c1cc(C23CC4CC(CC(C4)C2)C3)c2ccccc2n1 (stereo not drawn) | 0.513 µM | 97% |  |  |
| CCCCN(CCCC)NC(=O)c1cc(C23CC4CC(CC(C4)C2)C3)c2ccccc2n1 | 8.13 µM | 64% |  |  |
| CCCCCCNNC(=O)c1cc(C23CC4CC(CC(C4)C2)C3)c2ccccc2n1 | 4.79 µM | 77% |  |  |
| O=C(NNc1ccccc1F)c1cc(C23CC4CC(CC(C4)C2)C3)c2ccccc2n1 | 0.151 µM | 99% |  |  |
| CCCCNNC(=O)c1cc(C23CC4CC(CC(C4)C2)C3)c2ccccc2n1 | 13.5 µM | 55% |  |  |
| O=C(N/N=C/c1ccc(O)cc1)c1cc(C23CC4CC(CC(C4)C2)C3)c2ccccc2n1 | 5.37 µM | 73% |  |  |
| O=C(N/N=C/c1ccccn1)c1cc(C23CC4CC(CC(C4)C2)C3)c2ccccc2n1 | 2.88 µM | 84% |  |  |
| C=CCN(CC=C)NC(=O)c1cc(C23CC4CC(CC(C4)C2)C3)c2ccccc2n1 | 55 µM | 22% |  |  |
| O=C(NNC1CCCCC1)c1cc(C23CC4CC(CC(C4)C2)C3)c2ccccc2n1 | 0.0776 µM |  | 99% |  |
| O=C(NNCCCc1ccccc1)c1cc(C23CC4CC(CC(C4)C2)C3)c2ccccc2n1 | 14.1 µM | 50% |  |  |
| CC/C=N/NC(=O)c1cc(C23CC4CC(CC(C4)C2)C3)c2ccccc2n1 | 7.76 µM | 69% |  |  |
| O=C(N/N=C/c1ccccc1)c1cc(C23CC4CC(CC(C4)C2)C3)c2ccccc2n1 | 0.0776 µM |  | 99% |  |
| CCCN(CCC)NC(=O)c1cc(C23CC4CC(CC(C4)C2)C3)c2ccccc2n1 | 5.13 µM | 75% |  |  |
